Measurements taken from patent US6506766B1 (Abbott Laboratories, priority 1998, dated 2003).

target: T1, human progesterone receptor-A [PRA] isoform (Homo sapiens, UniProt P06401); experiment: Radioligand binding with human progesterone receptor cytosol ([3H]-progesterone competition); conditions: Ki (nM) PR
T1 construct: host or cells: insect SF21 cells (baculovirus)
T1 sequence (P06401 1-769 isoform P06401-2): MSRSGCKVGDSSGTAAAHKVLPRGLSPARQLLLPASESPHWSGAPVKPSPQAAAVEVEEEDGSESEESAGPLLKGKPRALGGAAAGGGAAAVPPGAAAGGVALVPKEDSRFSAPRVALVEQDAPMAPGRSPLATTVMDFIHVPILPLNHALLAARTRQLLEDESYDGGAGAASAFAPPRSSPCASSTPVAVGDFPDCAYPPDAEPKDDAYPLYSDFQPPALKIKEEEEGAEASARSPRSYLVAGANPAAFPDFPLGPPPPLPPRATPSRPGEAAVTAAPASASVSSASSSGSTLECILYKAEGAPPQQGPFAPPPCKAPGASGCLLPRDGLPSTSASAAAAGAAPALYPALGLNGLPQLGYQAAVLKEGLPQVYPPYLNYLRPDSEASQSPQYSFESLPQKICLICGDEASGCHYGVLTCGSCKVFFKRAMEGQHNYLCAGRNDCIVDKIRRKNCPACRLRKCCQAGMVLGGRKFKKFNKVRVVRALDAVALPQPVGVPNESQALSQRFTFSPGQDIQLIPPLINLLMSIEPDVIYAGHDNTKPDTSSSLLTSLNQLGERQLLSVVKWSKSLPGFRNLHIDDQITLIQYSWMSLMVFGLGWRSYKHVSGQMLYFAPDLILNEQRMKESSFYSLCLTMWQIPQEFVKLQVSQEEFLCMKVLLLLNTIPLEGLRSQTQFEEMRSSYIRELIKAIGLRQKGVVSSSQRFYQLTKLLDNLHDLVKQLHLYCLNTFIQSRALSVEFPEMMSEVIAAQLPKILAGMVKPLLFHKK

Structure (SMILES) | Ki
COC(=O)CN(C)C(=O)Oc1cccc(C2Oc3cccc(OC)c3-c3ccc4c(c32)C(C)=CC(C)(C)N4)c1 (stereo not drawn) [Example 311, 2,5-Dihydro-10-methoxy-5-(3-(N-methyl-N-(carbomethoxymethyl)aminocarbonyloxy)phenyl)-2,2,4-trimethyl-1H-[1]benzopyrano[3,4-f]quinoline] | ≥ 10000 nM

same assay, conditions: PRA cytosol expressed in insect SF21 cells, [3H]Prog ~0.8 nM, 4° C. overnight; Ki by Cheng-Prusoff, KL ~4.5 nM; read-out: Ki (nM) PR

Structure (SMILES) | Ki
COc1cccc2c1-c1ccc3c(c1C(C1CCCCC1)O2)C(C)=CC(C)(C)N3 (stereo not drawn) [Example 212, 2,5-Dihydro-10-methoxy-5-(cyclohexyl)-2,2,4-trimethyl-1H-[1]benzopyrano[3,4-f]quinoline] | ≥ 10000 nM
COc1cccc2c1-c1ccc3c(c1C(C1C=CCCCCC1)O2)C(C)=CC(C)(C)N3 (stereo not drawn) [Example 143, 2,5-Dihydro-10-methoxy-5-(3-cyclooctenyl)-2,2,4-trimethyl-1H-[1]benzopyrano[3,4f]quinoline] | 8100 nM
COc1cccc2c1-c1ccc3c(c1C(CCO)O2)C(C)=CC(C)(C)N3 (stereo not drawn) [Example 199, 2,5-Dihydro-10-methoxy-5-(2-hydroxyethyl)-2,2,4-trimethyl-1H-[1]benzopyrano[3,4-f]quinoline] | ≥ 10000 nM
COc1cccc2c1-c1ccc3c(c1C(c1cc(Cl)cc(Cl)c1)O2)C(C)=CC(C)(C)N3 (single isomer, unassigned; (-)) [Example 32, (−)-5-(3,5-Dichlorophenyl)-2,5-dihydro-10-methoxy-2,2,4-trimethyl-1H-[1]benzopyrano[3,4-f]quinoline] | 1560 nM
COc1cccc2c1-c1ccc3c(c1C(C)O2)C(C)=CC(C)(C)N3 (stereo not drawn) [Example 57, 2,5-Dihydro-10-methoxy-2,2,4,5-tetramethyl-1H-[1]benzopyrano[3,4-f]quinoline] | 4280 nM
COc1cccc2c1-c1ccc3c(c1[C@H]([C@@H]1C=CCC1)O2)C(C)=CC(C)(C)N3 [Example 390, (−)(5S,3′S)2,5-Dihydro-10-methoxy-2,2,4-trimethyl-5-(cyclopenten-3-yl)-1H-[1]benzopyrano[3,4-f]quinoline] | 520 nM
CC1=CC(C)(C)Nc2ccc3c(c21)[C@H]([C@@H]1C=CCC1)Oc1ccc(O)c(Cl)c1-3 [Example 221, (−)2,5(S)-Dihydro-9-hydroxy-10-chloro-2,2,4-trimethyl-5-(3S-cyclopentenyl)-1H-[1]benzopyrano[3,4-f]quinoline] | 4.2 nM
CC1=CC(C)(C)Nc2ccc3c(c21)C(c1ccccc1)Oc1ccc2c(c1-3)OCO2 (stereo not drawn) [Example 227, 9-10-Methylenedioxy-5-phenyl-2,2,4-trimethyl-1H-2,5-dihydro-[1]benzopyrano[3,4-f]quinoline] | 1930 nM
COc1cccc2c1-c1ccc3c(c1C(C1CCCC1)O2)C(C)=CC(C)(C)N3 (stereo not drawn) [Example 209, 2,5-Dihydro-10-methoxy-5-(cyclopentyl)-2,2,4-trimethyl-1H-[1]benzopyrano[3,4-f]quinoline] | 5460 nM
COc1c(O)ccc2c1-c1ccc3c(c1C(c1ccc(F)c(F)c1)O2)C(C)=CC(C)(C)N3 (stereo not drawn) [Example 254, 2,5-Dihydro-9-hydroxy-10-methoxy-2,2,4-trimethyl-5-(3,4-difluorophenyl)-1H-[1]benzopyrano[3,4-f]quinoline] | 1820 nM
CNc1cc(C)cc(C2Oc3cccc(OC)c3-c3ccc4c(c32)C(C)=CC(C)(C)N4)c1 (stereo not drawn) [Example 114, 3-(2,5-Dihydro-10-methoxy-2,2,4-trimethyl-1H-[1]benzopyrano[3,4-f]quinolin-5-methyl)-5,N-dimethylbenzenamine] | ≥ 10000 nM
COc1c(O)ccc2c1-c1ccc3c(c1/C(=C/c1ccccc1)O2)C(C)=CC(C)(C)N3 [Example 365, Z-5-(Benzylidenyl)-9-hydroxy-10-methoxy-2,2,4-trimethyl-1H-2,5-dihydro] | 98 nM
C=CC(=C)CC1Oc2cccc(OC)c2-c2ccc3c(c21)C(C)=CC(C)(C)N3 (stereo not drawn) [Example 172] | 9900 nM
COc1cccc2c1-c1ccc3c(c1C(Cc1ccccc1)O2)C(C)=CC(C)(C)N3 (stereo not drawn) [Example 53, 2,5-Dihydro-10-methoxy-2,2,4-trimethyl-5-(phenylmethyl)-1H-[1]benzopyrano[3,4-f]quinoline] | 2910 nM
C=CC1Oc2cccc(OC)c2-c2ccc3c(c21)C(C)=CC(C)(C)N3 (stereo not drawn) [Example 320, 2,5-Dihydro-10-methoxy-5-ethenyl-2,2,4-trimethyl-1H-[1]benzopyrano[3,4-f]quinoline] | 3050 nM
C#CCOc1cccc(C2Oc3cccc(OC)c3-c3ccc4c(c32)C(C)=CC(C)(C)N4)c1 (stereo not drawn) [Example 92, 2,5-Dihydro-10-methoxy-2,2,4-trimethyl-5-[3-(2-propynyloxy)phenyl]-1H-[1]benzopyrano[3,4-f]quinoline] | ≥ 10000 nM

Structure (SMILES) | Ki
CC1=CC(C)(C)Nc2ccc3c(c21)/C(=C/c1cccc(F)c1)Oc1ccc(O)c(Cl)c1-3 [Example 367, Z-5-(3-Fluorobenzylidenyl)-10-chloro-9-hydroxy-2,2,4-trimethyl-2,5-dihydro-1H-[1]benzopyrano[3,4-f]quinoline] | 7.6 nM
COc1cccc2c1-c1ccc3c(c1C(CC=C1CCCCCC1)O2)C(C)=CC(C)(C)N3 (stereo not drawn) [Example 189, 2,5-Dihydro-10-methoxy-5-(2-cycloheptylidenylethyl)-2,2,4-trimethyl-1H-[1]benzopyrano[3,4-f]quinoline] | 1700 nM
COc1cccc2c1-c1ccc3c(c1C(CCCO)O2)C(C)=CC(C)(C)N3 (stereo not drawn) [Example 69, 2,5-Dihydro-10-methoxy-2,2,4-trimethyl-1H-[1]benzopyrano[3,4-f]quinoline-5-propanol] | 17300 nM
C=CCC1Oc2cccc(C=O)c2-c2ccc3c(c21)C(C)=CC(C)(C)N3 (stereo not drawn) [Example 330, 2,5-Dihydro-10-formyl-5-(3-propenyl)-2,2,4-trimethyl-1H-[1]benzopyrano[3,4-f]quinoline] | 53 nM
COc1cccc2c1-c1ccc3c(c1C(CC1=CCCCC1)O2)C(C)=CC(C)(C)N3 (stereo not drawn) [Example 145, 2,5-Dihydro-10-methoxy-5-(1-cyclohexenylmethyl)-2,2,4-trimethyl-1H-[1]benzopyrano[3,4-f]quinoline] | ≥ 10000 nM
COc1c(O)ccc2c1-c1ccc3c(c1C(c1cccs1)O2)C(C)=CC(C)(C)N3 (stereo not drawn) [Example 274, 2,5-Dihydro-9-hydroxy-10-methoxy-2,2,4-trimethyl-5-(2-thienyl)-1H-[1]benzopyrano[3,4-f]quinoline] | 386 nM
C=CCC1Oc2cccc(CO)c2-c2ccc3c(c21)C(C)=CC(C)(C)N3 (stereo not drawn) [Example 329, 2,5-Dihydro-10-(2-hydroxymethyl)-5-(3-propenyl)-2,2,4-trimethyl-1H-[1]benzopyrano[3,4-f]quinoline] | 192 nM
C=CCOc1ccc2c(c1OC)-c1ccc3c(c1C(CC=C)O2)C(C)=CC(C)(C)N3 (stereo not drawn) [Example 293, 10-Methoxy-9-(3-propenyloxy)-5-(3-propenyl)-2,2,4-trimethyl-1H-2,5-dihydro[1]benzopyrano[3,4-f]quinoline] | 3740 nM
COc1cccc2c1-c1ccc3c(c1C(C1C=CCC1)O2)C(C)=CC(C)(C)N3 (racemic) [Example 136] | 2700 nM
COc1cccc2c1-c1ccc3c(c1C(=Cc1ccccc1)O2)C(C)=CC(C)(C)N3 (mixture of isomers) [Example 18, 2,5-Dihydro-10-methoxy-2,2,4-trimethyl-5-(phenylmethylene)-1H-[1]benzopyrano[3,4-f]quinoline] | 1040 nM
CCOC(=O)C1Oc2cccc(OC)c2-c2ccc3c(c21)C(C)=CC(C)(C)N3 (stereo not drawn) [Example 208, 2,5-Dihydro-10-methoxy-5-(carboethoxy)-2,2,4-trimethyl-1H-[1]benzopyrano[3,4-f]quinoline] | 970 nM
COc1cccc2c1-c1ccc3c(c1C(c1cc(Cl)cc(Cl)c1)O2)C(C)=CC(C)(C)N3 (stereo not drawn) [Example 19, 5-(3,5-Dichlorophenyl)-2,5-dihydro-10-methoxy-2,2,4-trimethyl-1H-[1]benzopyrano[3,4-f]quinoline] | 4970 nM
COc1cccc2c1-c1ccc3c(c1C(CC(C)=O)O2)C(C)=CC(C)(C)N3 (stereo not drawn) [Example 45, 1-(2,5-Dihydro-10-methoxy-2,2,4-trimethyl-1H-[1]benzopyrano[3,4-f]quinolin-5-yl)-2-propanone] | ≥ 10000 nM
COc1cccc2c1-c1ccc3c(c1[C@H]([C@H]1C=CCC1)O2)C(C)=CC(C)(C)N3 [Example 393, (−)(5S,3′R)2,5-Dihydro-10-methoxy-2,2,4-trimethyl-5-(cyclopenten-3-yl)-1H-[1]benzopyrano[3,4-f]quinoline] | 589 nM
C=CCC1Oc2c(Br)cc(O)c(Cl)c2-c2ccc3c(c21)C(C)=CC(C)(C)N3 (stereo not drawn) [Example 397, 2,5-Dihydro-7-bromo-9-hydroxy-10-chloro-2,2,4-trimethyl-5-allyl-1H-[1]benzopyrano[3,4-f]quinoline] | 22.8 nM
COc1cccc2c1-c1ccc3c(c1C(CCN(C)C)O2)C(C)=CC(C)(C)N3 (stereo not drawn) [Example 64, 2,5-Dihydro-10-methoxy-2,2,4,N,N-pentamethyl-1H-[1]benzopyrano[3,4-f]quinoline5-ethanamine] | 1670 nM
